Test results reported in publication PMC4204995, “Inhibition of Influenza Virus Replication by Targeting Broad Host Cell Pathways” (PLoS ONE, 2014).
Where “and” joins values, the source holds several entries; their conditions need not be identical. Equal values may be shown once. Where a name gives a salt, the structure may show the parent alone. Read-outs that look alike come from different tables or passages of the source.

Columns and labels:
[1] = test system: A/California-like/2009 (H1N1); test: microbe, parasite or virus in culture; assay type: cell-based, influenza A virus
[2] = test system: A/Puerto Rico/8/34 (H1N1); test: microbe, parasite or virus in culture; assay type: cell-based, influenza A virus; conditions: for EC50: read-out: EC50 values, A/Puerto Rico/8/34 (H1N1)
PR8 virus = assay type: cell-based, influenza A virus
A/Hong Kong/X31 (H3N2) = test: microbe, parasite or virus in culture; assay type: cell-based, influenza A virus; conditions: read-out: EC50 values, A/Hong Kong/X31 (H3N2)
in vitro = conditions: dog
[3] = test system: viral acidic polymerase (PA) expression, PR8 virus; assay type: cell-based, influenza A virus
[4] = XTT cytotoxicity assay in MDCK cells; conditions: dog
[5] = test system: A/Swine/OTH-33-2/2009 (H1N1); assay type: cell-based, influenza A virus
PR8 influenza virus = assay type: cell-based, influenza A virus
[6] = XTT cytotoxic assay in Calu-3 cells; assay type: cell-based; conditions: human
[7] = test system: A/Puerto Rico/8/34 (H1N1); test: microbe, parasite or virus in culture; assay type: cell-based; conditions: Influenza A virus, H1N1 / PR8, Calu-3, 48 h, read-out: EC50 values
MDCK cells [8] = test: XTT cytotoxicity assay in MDCK cells; conditions: MDCK cells; for CC50: XTT cell viability, 2 days
MDCK cells [9] = test system: MDCK cells
[10] = Influenza A virus, H1N1, MDCK, 48 h, read-out: EC50 values, A/California-like/2009 (H1N1)
[11] = Influenza A virus, H1N1, MDCK, 48 h
[12] = Influenza A virus, H3N2, MDCK, 48 h
[13] = read-out: EC50 values, A/California-like/2009 (H1N1)

SMILES	EC50 [1, 10] [µM]	EC50 [2, 11] [µM]	EC50 (A/Hong Kong/X31 (H3N2); [12]) [µM]	effect on viral replication (PR8 virus)	decrease of PA expression [3]	CC50 (in vitro) [µM]	other results
CN(C)c1nc(N)c(C(=O)NC(=N)N)nc1Cl [5-(N,N-Dimethyl)amiloride hydrochloride, 5-(N,N-Dimethyl) amiloride hydrochloride]	63.5 ± 5.77	31.1 ± 7.72	20.4 ± 8.62	–	–	–	inhibition of viral replication (PR8 virus): 80%; CC50 at 2 days (in vitro): 175 ± 10.2 µM; effect on PA gene expression [3]: almost completely abolished
CNc1ccc2oc(C[C@H]3O[C@@]4(CC[C@H]3C)O[C@H]([C@H](C)C(=O)c3ccc[nH]3)[C@H](C)C[C@H]4C)nc2c1C(=O)O [A23187 (calcimycin), calcimycin (A23187)]	0.22 ± 0.01	0.08 ± 0.01	0.08 ± 0.01	completely inhibit viral replication	42%	–	CC50 at 2 days [4]: 0.413 ± 0.21 µM
CCN(CC)Cc1cc(Nc2ccnc3cc(Cl)ccc23)ccc1O [Amodiaquine, amodiaquin dihydrochloride dihydrate]	1.48 ± 0.92	2.76 ± 0.95	2.63 ± 0.9	abrogate viral replication	82%	26.2 ± 8.43	reduction of PR8 replication [2]: ~26%; inhibition of replication [5]: more than 60%; effect on viral replication in growth kinetics assays (PR8 influenza virus): inhibited viral replication; CC50 [6]: 53.6 ± 8.8 µM; EC50 [7]: 1.25 to 2.5 µM
CO/C1=C\C(C)=C\[C@@H](C)[C@@H](O)[C@@H](C)C/C(C)=C/C=C/[C@H](OC)[C@@H]([C@@H](C)[C@@H](O)[C@H](C)[C@@]2(O)C[C@@H](O)[C@H](C)[C@@H](C(C)C)O2)OC1=O [Bafilomycin A, bafilomycin A]	–	–	–	–	more than 90%	–	EC50 ([1]; read-out: EC50 values, A/California-like/2009 (H1N1), result as symbol): < 0.004 µM; EC50 [2]: 0.004 µM; CC50 (MDCK cells [8]; footnote c: [ ] in nM): 16.8 ± 9.02 nM
COc1cc(CNC(=O)CCCC/C=C/C(C)C)ccc1O [Capsaicin, capsaicin]	44.7 ± 8.15	58.8 ± 8.32	55.2 ± 7.2	–	approximately 48%	–	CC50 at 2 days [4]: 157 ± 9.63 µM; toxicity (MDCK cells [8]; at 100 µM): no significant toxicity; cell death (MDCK cells [8]; at 200 µM): 50%
CCN(CC)CCCC(C)Nc1ccnc2cc(Cl)ccc12 (stereo not shown) [Chloroquine, chloroquine diphosphate salt]	4.01 ± 0.8	0.61 ± 0.91	4.31 ± 0.96	abrogate viral replication	–	–	inhibition of replication [5]: more than 60%
OC(c1cc(C(F)(F)F)nc2c(C(F)(F)F)cccc12)C1CCCCN1 (stereo not shown) [Mefloquine, mefloquine hydrochloride]	–	5.13 ± 0.87	6.66 ± 0.75	–	82%	22.9 ± 1.3	EC50 ([1]; Influenza A virus, H1N1, MDCK, read-out: EC50 values, A/California-like/2009 (H1N1), result as symbol): > 22.9 µM
CCC(CC)O[C@@H]1C=C(C(=O)O)C[C@H](N)[C@H]1NC(C)=O [Oseltamivir carboxylate]	–	–	–	–	–	–	EC50 [1, 13]: 0.103 ± 0.0321 µM; reduction of PR8 replication [2]: approximately 30%; EC50 [2]: 0.05 µM and 0.0499 µM; EC50 (PR8 virus): 0.313 µM; CC50 (MDCK cells [9]): > 1000 µM; EC50 (A/Hong Kong/X31 (H3N2)): 0.00074 ± 8e-05 µM
COc1cc(NC(C)CCCN)c2ncccc2c1 (stereo not shown) [Primaquine, primaquine diphosphate]	28.6 ± 9.45	8.58 ± 0.89	29.5 ± 9.42	–	62%	–	inhibition of replication [5]: less than 20%
CCN(CC)CCCC(C)Nc1c2ccc(Cl)cc2nc2ccc(OC)cc12 (stereo not shown) [Quinacrine, quinacrine dihydrochloride]	1.88 ± 0.87	2.96 ± 0.87	5.97 ± 0.91	–	more than 90%	14.6 ± 8.51	toxicity (MDCK cells [9]): no toxicity; cell death (MDCK cells [9]; dog): 10%; inhibition of replication [5]: more than 60%
C=C[C@H]1C[N@@]2CC[C@H]1C[C@@H]2[C@@H](O)c1ccnc2ccc(OC)cc12 [Quinidine, quinidine anhydrous]	5.11 ± 0.76	16.2 ± 8.9	19.8 ± 8.83	–	more than 90%	167 ± 94.2	dose range at which IAV replication is inhibited [2]: ≥ 16.2 µM
C=C[C@H]1C[N@@]2CC[C@H]1C[C@H]2[C@H](O)c1ccnc2ccc(OC)cc12 [Quinine, Quinine sulfate]	12.2 ± 8.49	9.1 ± 0.89	17.1 ± 8.7	abrogate viral replication	more than 90%	409 ± 82.2	concentration needed to abrogate viral replication [2]: 50 µM; concentration needed to abrogate viral replication (PR8 virus): 60 µM
CCN(CC)CCCCCCCCOC(=O)c1cc(OC)c(OC)c(OC)c1.Cl [TMB-8, TMB-8 hydrochloride]	–	–	–	completely inhibit viral replication	–	–	EC50 [1, 13]: 12.7 ± 8.65 µM; inhibition of PR8 replication ([2]; 10 µM): 90%; EC50 [2]: 2.5 ± 0.91 µM; cell death (MDCK cells [9]): 25%; toxicity (MDCK cells [9]): no significant toxicity; CC50 (MDCK cells [8]): 52300 ± 8380 nM; EC50 (A/Hong Kong/X31 (H3N2)): 21.7 ± 9.31 µM; effect on PA gene expression [3]: almost completely abolished
COc1ccc(CCN(C)CCCC(C#N)(c2ccc(OC)c(OC)c2)C(C)C)cc1OC (stereo not shown) [Verapamil, verapamil hydrochoride]	–	–	19.6 ± 8.75	–	–	–	EC50 [7]: 1.25 to 2.5 µM
